Laboratory results from publication PMC10300260 (The Journal of Biological Chemistry, 2023).

Key:
[1] = target: T1, TcK2 (T. cruzi eIF2α kinase 2, PERK homologue); test: LANCE TR-FRET kinase assay with p70S6K peptide; DSF ΔTm […] °C; knockout parasites less sensitive; assay type: biochemical, Trypanosoma cruzi
T1 construct: gene TcYC6_0089220; kinase domain KD5 (S659-I976)

[2] = target: T1, TcK2 (T. cruzi eIF2α kinase 2, PERK homologue); test: LANCE TR-FRET kinase assay with p70S6K peptide; DSF ΔTm […] °C; assay type: biochemical, Trypanosoma cruzi

Cc1nc(Nc2ncc(C(=O)Nc3c(C)cccc3Cl)s2)cc(N2CCN(CCO)CC2)n1 [Dasatinib]
IC50 [1]: 0.19 ± 0.02 µM

Cn1cc(-c2[nH]c3cc(NC(=O)[C@H](N)C4CCCCC4)cc4c3c2C=NNC4=O)cn1 [PF-477736]
IC50 [2]: 0.67 ± 0.02 µM
